# Reference: publication PMC4235214 (mBio, 2014)
# Where two headings read alike, the source gives them in different places.
# Key:
# [1] = system: EHEC; assay type: cell-based, enterohemorrhagic Escherichia coli (EHEC) O157:H7
# [2] = system: S. Typhimurium strain SL1344; design: species or system mice (BALB/c); conditions: mouse, in vivo
# [3] = target: hERG channel (Homo sapiens, UniProt Q12809); assay: in vitro
# [4] = mouse, in vivo; cited from earlier work
# [5] = system: S. Typhimurium; assay type: cell-based, Salmonella enterica serovar Typhimurium; conditions: J774 macrophages, 5 nM
# [6] = system: UPEC; assay type: cell-based, uropathogenic E. coli (UPEC); conditions: for reduction of biofilm formation: 24 h
# [7] = system: Pseudomonas and Klebsiella isolates; assay type: cell-based
# [8] = system: QseC; conditions: cited from earlier work
# [9] = in vivo; conditions: female, CD-1, mouse
# [10] = system: EAEC O104:H4; assay type: cell-based, enteroaggregative E. coli (EAEC)
# [11] = system: EAEC O104:H4; assay type: cell-based, enteroaggregative E. coli (EAEC); conditions: EAEC O104:H4, 5 nM, 24 h
# [12] = 5, 20, and 80 mg/kg daily for 14 days
# hERG channel, sequence (Q12809 whole entry): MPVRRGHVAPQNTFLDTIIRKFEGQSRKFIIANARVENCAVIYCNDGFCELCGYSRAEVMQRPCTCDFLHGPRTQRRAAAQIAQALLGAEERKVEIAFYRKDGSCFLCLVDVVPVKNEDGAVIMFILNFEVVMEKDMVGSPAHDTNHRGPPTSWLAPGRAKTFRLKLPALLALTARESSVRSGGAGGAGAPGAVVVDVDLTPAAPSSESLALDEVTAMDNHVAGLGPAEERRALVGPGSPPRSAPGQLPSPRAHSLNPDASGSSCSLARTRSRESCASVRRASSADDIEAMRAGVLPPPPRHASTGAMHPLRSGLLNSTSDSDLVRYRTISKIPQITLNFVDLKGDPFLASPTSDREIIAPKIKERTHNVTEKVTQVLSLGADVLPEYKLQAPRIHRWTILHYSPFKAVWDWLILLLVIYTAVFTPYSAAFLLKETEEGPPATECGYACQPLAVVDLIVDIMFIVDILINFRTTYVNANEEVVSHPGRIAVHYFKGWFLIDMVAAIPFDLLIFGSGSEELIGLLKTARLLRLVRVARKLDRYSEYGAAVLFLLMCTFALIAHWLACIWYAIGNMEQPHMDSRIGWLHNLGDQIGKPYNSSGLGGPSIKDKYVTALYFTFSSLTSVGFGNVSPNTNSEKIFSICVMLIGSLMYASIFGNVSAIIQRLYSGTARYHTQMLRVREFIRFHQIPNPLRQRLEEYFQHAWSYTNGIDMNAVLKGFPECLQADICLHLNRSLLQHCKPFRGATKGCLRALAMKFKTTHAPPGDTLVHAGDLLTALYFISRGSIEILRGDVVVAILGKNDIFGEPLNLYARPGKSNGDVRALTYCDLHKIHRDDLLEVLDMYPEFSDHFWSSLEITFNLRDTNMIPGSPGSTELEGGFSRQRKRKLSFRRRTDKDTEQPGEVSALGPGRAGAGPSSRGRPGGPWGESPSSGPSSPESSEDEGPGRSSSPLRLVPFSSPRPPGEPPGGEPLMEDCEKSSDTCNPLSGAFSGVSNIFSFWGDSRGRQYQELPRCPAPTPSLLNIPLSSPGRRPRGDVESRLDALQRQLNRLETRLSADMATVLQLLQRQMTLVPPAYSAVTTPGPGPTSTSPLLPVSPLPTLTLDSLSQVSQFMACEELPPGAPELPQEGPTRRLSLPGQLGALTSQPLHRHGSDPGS
smiles,measurement,setting,value
"COc1ccccc1NC(=O)Nc1ccc(S(=O)(=O)Nc2ccccc2)cc1 [CF287, 4-(3-(2-Methoxyphenyl)ureido)-N-phenylbenzenesulfonamide]",expression of ler and stx2a,[1],lost the antagonist activity
"O=S(=O)(Nc1ccccc1)c1ccc(NC(=S)Nc2ccccc2)cc1 [LED209, N-phenyl-4-(3-phenylthioureido)benzenesulfonamide]",mice remained alive,[2],43%
same,mice remained alive,[2]; 20 mg/kg,60%
same,mice survived,"[2]; po, 20 mg/kg",50%
same,inhibition at 10 µM,[3],4%
same,pharmacokinetics via the intravenous route,[4],linear
same,"expression of key virulence genes (ler, tir, stx2a)",[1],phenocopied a qseC mutation
same,expression of ler and stx2a,[1],works as well as all of our previous LED209 batches
same,"expression of the virulence genes (LEE: ler, tir)",[1],nonresponsive
same,expression of the virulence genes (ler),[1],did not respond
same,decrease of survival of S. Typhimurium within macrophages,[5],4 logs
same,reduction in biofilm formation,[6]; UPEC clinical isolate 6,43%
same,reduction in biofilm formation,[6]; UPEC clinical isolate 8,48%
same,reduction in biofilm formation,[6]; UPEC clinical isolate 25,43%
same,reduction of biofilm formation,"[6]; UPEC strain CFT073, 5 nM, not significant",8%
same,reduction of biofilm formation,"[6]; UPEC strain UTI89, 5 nM",35%
same,reduction of biofilm formation,[7]; clinical isolate 18,26%
same,reduction of biofilm formation,[7]; clinical isolate 20,21%
same,QseC binding to its signals and autophosphorylation,[8],preventing binding to its signals and consequently its autophosphorylation
same,half-life,[9],0.667 to 1.67 h
same,expression of stx2a,[10],significantly reduced
same,reduction of biofilm formation,[11],37%
same,penetration of the blood-brain barrier,20 mg/kg,limited
same,peak concentrations in plasma,at each oral dose,high
same,exposures versus dose,oral doses above 80 mg/kg,increased less than proportionally
same,oral bioavailability,"oral gavage, mice",good
same,pharmacokinetics by the oral route,"oral gavage, mice",nonlinear
same,liver toxicity,[12],no liver toxicity
same,toxicity,[12],did not present any toxicity
"O=C(Nc1ccccc1)Nc1ccc(NS(=O)(=O)c2ccccc2)cc1 [CF252, N-(4-(3-Phenylureido)phenyl)benzenesulfonamide]",expression of ler and stx2a,[1],reversed the antagonist behavior
"O=C(Nc1ccccc1)Nc1ccc(S(=O)(=O)NC2CCCCC2)cc1 [CF283, N-Cyclohexyl-4-(3-phenylureido)benzenesulfonamide]",expression of ler and stx2a,[1],significantly reduced
"O=C(Nc1ccc(S(=O)(=O)Nc2ccccc2)cc1)Nc1nncs1 [CF290, 4-(3-(1,3,4-Thiadiazol-2-yl)ureido)-N-phenylbenzenesulfonamide]",increase of ler,[1],2 fold
